From the supplement of paper PMC10307832

Columns and labels:
Test in all cases: relative viability (nuclei count vs DMSO), 5 days (fraction); higher = more cells survive
A-427 = system: A-427
Summary of the method: (§1)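 Nuclei were stained with Hoechst during a one-step fixation (final 0.05% Triton X-100, 1% formaldehyde, 1 ug/ml Hoechst) carried out 5 days after dosing, then counted on 4× images. The cells, lung cancer lines in 1536-well plates, had been dosed by pin tool the day after seeding with one drug alone or a fixed anchor-drug dose plus five library-drug doses (not always all listed) in √10 steps. Relative viability is the nuclei count in treated wells divided by that in vehicle wells, and each value is the median of duplicate plates.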

H3255 = system: H3255
Summary of the method: as §1

HARA = system: HARA
Summary of the method: as §1

HCC-15 = system: HCC-15
Summary of the method: as §1

HCC-366 = system: HCC-366
Summary of the method: as §1

LXF-289 = system: LXF-289
Summary of the method: as §1

NCI-H1437 = system: NCI-H1437
Summary of the method: as §1

NCI-H1755 = system: NCI-H1755
Summary of the method: as §1

NCI-H1793 = system: NCI-H1793
Summary of the method: as §1

NCI-H1915 = system: NCI-H1915
Summary of the method: as §1

NCI-H1975 = system: NCI-H1975
Summary of the method: as §1

NCI-H2009 = system: NCI-H2009
Summary of the method: as §1

NCI-H2023 = system: NCI-H2023
Summary of the method: as §1

NCI-H2405 = system: NCI-H2405
Summary of the method: as §1

NCI-H3122 = system: NCI-H3122
Summary of the method: as §1

NCI-H441 = system: NCI-H441
Summary of the method: as §1

NCI-H460 = system: NCI-H460
Summary of the method: as §1

NCI-H596 = system: NCI-H596
Summary of the method: as §1

NCI-H650 = system: NCI-H650
Summary of the method: as §1

PC-14 = system: PC-14
Summary of the method: as §1

PC-3 [JPC-3] = system: PC-3 [JPC-3]
Summary of the method: as §1

SK-LU-1 = system: SK-LU-1
Summary of the method: as §1

UMC-11 = system: UMC-11
Summary of the method: as §1

Question: How did the relative viability (A-427; first compound 5 µM) turn out when `O=C(O)CCCCC(CCSCc1ccccc1)SCc1ccccc1` (centres undefined) [CPI-613] + Nc1ncn([C@H]2C[C@H](O)[C@@H](CO)O2)c(=O)n1 [Decitabine] (partner 2 µM) was run?
Answer: 0.55

Question: And the relative viability (A-427; first compound 15.81 µM)?
Answer: 0.551

Question: And the relative viability (A-427; first compound 50 µM)?
Answer: 0.582

Question: What about the relative viability (A-427; first compound 158.11 µM) of the same compound?
Answer: 0.495

Question: What about the relative viability (A-427; first compound 500 µM) of the same compound?
Answer: 0.435

Question: And the relative viability (H3255; first compound 5 µM)?
Answer: 0.626

Question: What about the relative viability (H3255; first compound 15.81 µM) of the same compound?
Answer: 0.537

Question: What about the relative viability (H3255; first compound 50 µM) of the same compound?
Answer: 0.665

Question: What about the relative viability (H3255; first compound 158.11 µM) of the same compound?
Answer: 0.566

Question: And the relative viability (H3255; first compound 500 µM)?
Answer: 0.569

Question: And the relative viability (HARA; first compound 5 µM)?
Answer: 0.494

Question: And the relative viability (HARA; first compound 15.81 µM)?
Answer: 0.467

Question: What about the relative viability (HARA; first compound 50 µM) of the same compound?
Answer: 0.575

Question: What about the relative viability (HARA; first compound 158.11 µM) of the same compound?
Answer: 0.289

Question: And the relative viability (HARA; first compound 500 µM)?
Answer: 0.111

Question: And the relative viability (HCC-15; first compound 5 µM)?
Answer: 0.594

Question: And the relative viability (HCC-15; first compound 15.81 µM)?
Answer: 0.592

Question: And the relative viability (HCC-15; first compound 50 µM)?
Answer: 0.547

Question: And the relative viability (HCC-15; first compound 158.11 µM)?
Answer: 0.265

Question: And the relative viability (HCC-15; first compound 500 µM)?
Answer: 0.0057

Question: And the relative viability (HCC-366; first compound 5 µM)?
Answer: 0.339

Question: And the relative viability (HCC-366; first compound 15.81 µM)?
Answer: 0.31

Question: What about the relative viability (HCC-366; first compound 50 µM) of the same compound?
Answer: 0.381

Question: What about the relative viability (HCC-366; first compound 158.11 µM) of the same compound?
Answer: 0.202

Question: What about the relative viability (HCC-366; first compound 500 µM) of the same compound?
Answer: 0.0146

Question: And the relative viability (LXF-289; first compound 5 µM)?
Answer: 0.369

Question: And the relative viability (LXF-289; first compound 15.81 µM)?
Answer: 0.375

Question: And the relative viability (LXF-289; first compound 50 µM)?
Answer: 0.365

Question: And the relative viability (LXF-289; first compound 158.11 µM)?
Answer: 0.272

Question: What about the relative viability (LXF-289; first compound 500 µM) of the same compound?
Answer: 0.0864

Question: And the relative viability (NCI-H1437; first compound 5 µM)?
Answer: 0.491

Question: What about the relative viability (NCI-H1437; first compound 15.81 µM) of the same compound?
Answer: 0.542

Question: And the relative viability (NCI-H1437; first compound 50 µM)?
Answer: 0.567

Question: What about the relative viability (NCI-H1437; first compound 158.11 µM) of the same compound?
Answer: 0.207

Question: What about the relative viability (NCI-H1437; first compound 500 µM) of the same compound?
Answer: 0.0486

Question: And the relative viability (NCI-H1755; first compound 5 µM)?
Answer: 0.732

Question: And the relative viability (NCI-H1755; first compound 15.81 µM)?
Answer: 0.738

Question: What about the relative viability (NCI-H1755; first compound 50 µM) of the same compound?
Answer: 0.67

Question: What about the relative viability (NCI-H1755; first compound 158.11 µM) of the same compound?
Answer: 0.699

Question: And the relative viability (NCI-H1755; first compound 500 µM)?
Answer: 0.543

Question: And the relative viability (NCI-H1793; first compound 5 µM)?
Answer: 0.468

Question: What about the relative viability (NCI-H1793; first compound 15.81 µM) of the same compound?
Answer: 0.51

Question: And the relative viability (NCI-H1793; first compound 50 µM)?
Answer: 0.539

Question: What about the relative viability (NCI-H1793; first compound 158.11 µM) of the same compound?
Answer: 0.25

Question: And the relative viability (NCI-H1793; first compound 500 µM)?
Answer: 0.108

Question: And the relative viability (NCI-H1915; first compound 5 µM)?
Answer: 0.272

Question: And the relative viability (NCI-H1915; first compound 15.81 µM)?
Answer: 0.266

Question: And the relative viability (NCI-H1915; first compound 50 µM)?
Answer: 0.256

Question: What about the relative viability (NCI-H1915; first compound 158.11 µM) of the same compound?
Answer: 0.235

Question: And the relative viability (NCI-H1915; first compound 500 µM)?
Answer: 0.114

Question: And the relative viability (NCI-H1975; first compound 5 µM)?
Answer: 0.391

Question: What about the relative viability (NCI-H1975; first compound 15.81 µM) of the same compound?
Answer: 0.413

Question: And the relative viability (NCI-H1975; first compound 50 µM)?
Answer: 0.399

Question: And the relative viability (NCI-H1975; first compound 158.11 µM)?
Answer: 0.412

Question: What about the relative viability (NCI-H1975; first compound 500 µM) of the same compound?
Answer: 0.0581

Question: What about the relative viability (NCI-H2009; first compound 5 µM) of the same compound?
Answer: 0.393

Question: What about the relative viability (NCI-H2009; first compound 15.81 µM) of the same compound?
Answer: 0.397

Question: What about the relative viability (NCI-H2009; first compound 50 µM) of the same compound?
Answer: 0.385

Question: And the relative viability (NCI-H2009; first compound 158.11 µM)?
Answer: 0.228

Question: What about the relative viability (NCI-H2009; first compound 500 µM) of the same compound?
Answer: 0.0406

Question: And the relative viability (NCI-H2023; first compound 5 µM)?
Answer: 0.215

Question: What about the relative viability (NCI-H2023; first compound 15.81 µM) of the same compound?
Answer: 0.257

Question: What about the relative viability (NCI-H2023; first compound 50 µM) of the same compound?
Answer: 0.244

Question: What about the relative viability (NCI-H2023; first compound 158.11 µM) of the same compound?
Answer: 0.0918

Question: And the relative viability (NCI-H2023; first compound 500 µM)?
Answer: 0.0147

Question: And the relative viability (NCI-H2405; first compound 5 µM)?
Answer: 0.754

Question: What about the relative viability (NCI-H2405; first compound 15.81 µM) of the same compound?
Answer: 0.72

Question: What about the relative viability (NCI-H2405; first compound 50 µM) of the same compound?
Answer: 0.709

Question: What about the relative viability (NCI-H2405; first compound 158.11 µM) of the same compound?
Answer: 0.674

Question: And the relative viability (NCI-H2405; first compound 500 µM)?
Answer: 0.535

Question: And the relative viability (NCI-H3122; first compound 5 µM)?
Answer: 0.344

Question: What about the relative viability (NCI-H3122; first compound 15.81 µM) of the same compound?
Answer: 0.439

Question: And the relative viability (NCI-H3122; first compound 50 µM)?
Answer: 0.481

Question: What about the relative viability (NCI-H3122; first compound 158.11 µM) of the same compound?
Answer: 0.376

Question: What about the relative viability (NCI-H3122; first compound 500 µM) of the same compound?
Answer: 0.185

Question: And the relative viability (NCI-H441; first compound 5 µM)?
Answer: 0.261

Question: And the relative viability (NCI-H441; first compound 15.81 µM)?
Answer: 0.253

Question: What about the relative viability (NCI-H441; first compound 50 µM) of the same compound?
Answer: 0.231

Question: What about the relative viability (NCI-H441; first compound 158.11 µM) of the same compound?
Answer: 0.148

Question: And the relative viability (NCI-H441; first compound 500 µM)?
Answer: 0.0077

Question: And the relative viability (NCI-H460; first compound 5 µM)?
Answer: 0.513

Question: And the relative viability (NCI-H460; first compound 15.81 µM)?
Answer: 0.396

Question: And the relative viability (NCI-H460; first compound 50 µM)?
Answer: 0.456

Question: And the relative viability (NCI-H460; first compound 158.11 µM)?
Answer: 0.115

Question: What about the relative viability (NCI-H460; first compound 500 µM) of the same compound?
Answer: 0.0075

Question: And the relative viability (NCI-H596; first compound 5 µM)?
Answer: 1.13

Question: What about the relative viability (NCI-H596; first compound 15.81 µM) of the same compound?
Answer: 0.965

Question: What about the relative viability (NCI-H596; first compound 50 µM) of the same compound?
Answer: 0.98

Question: And the relative viability (NCI-H596; first compound 158.11 µM)?
Answer: 0.866

Question: What about the relative viability (NCI-H596; first compound 500 µM) of the same compound?
Answer: 0.111

Question: What about the relative viability (NCI-H650; first compound 5 µM) of the same compound?
Answer: 0.314

Question: What about the relative viability (NCI-H650; first compound 15.81 µM) of the same compound?
Answer: 0.295

Question: What about the relative viability (NCI-H650; first compound 50 µM) of the same compound?
Answer: 0.299

Question: What about the relative viability (NCI-H650; first compound 158.11 µM) of the same compound?
Answer: 0.321

Question: What about the relative viability (NCI-H650; first compound 500 µM) of the same compound?
Answer: 0.288

Question: And the relative viability (PC-14; first compound 5 µM)?
Answer: 0.266

Question: What about the relative viability (PC-14; first compound 15.81 µM) of the same compound?
Answer: 0.201

Question: And the relative viability (PC-14; first compound 50 µM)?
Answer: 0.23

Question: And the relative viability (PC-14; first compound 158.11 µM)?
Answer: 0.109

Question: What about the relative viability (PC-14; first compound 500 µM) of the same compound?
Answer: 0.0133

Question: And the relative viability (PC-3 [JPC-3]; first compound 5 µM)?
Answer: 0.799

Question: And the relative viability (PC-3 [JPC-3]; first compound 50 µM)?
Answer: 0.879

Question: And the relative viability (PC-3 [JPC-3]; first compound 158.11 µM)?
Answer: 0.716

Question: And the relative viability (PC-3 [JPC-3]; first compound 500 µM)?
Answer: 0.622

Question: And the relative viability (SK-LU-1; first compound 5 µM)?
Answer: 0.693

Question: What about the relative viability (SK-LU-1; first compound 15.81 µM) of the same compound?
Answer: 0.527

Question: What about the relative viability (SK-LU-1; first compound 50 µM) of the same compound?
Answer: 0.533

Question: What about the relative viability (SK-LU-1; first compound 158.11 µM) of the same compound?
Answer: 0.314

Question: What about the relative viability (SK-LU-1; first compound 500 µM) of the same compound?
Answer: 0.0957

Question: What about the relative viability (UMC-11; first compound 5 µM) of the same compound?
Answer: 0.574

Question: What about the relative viability (UMC-11; first compound 15.81 µM) of the same compound?
Answer: 0.573

Question: And the relative viability (UMC-11; first compound 50 µM)?
Answer: 0.611

Question: And the relative viability (UMC-11; first compound 158.11 µM)?
Answer: 0.562

Question: And the relative viability (UMC-11; first compound 500 µM)?
Answer: 0.544
